# Read-outs that look alike come from different tables or passages of the source. Starred links: 1 amine or outer side, 2 acyl side, 3 side chain; linkers in the order of their positions; H or OH if unused. Positions of bridges follow the written chain, without caps; N, C: chain ends. Non-standard residues stand in square brackets, D forms with d. Residues, ends and D or L forms follow the SMILES beside them. *: point of attachment. hTyr(3S-OH,4S-OH,3'-OSO3H) = N[C@H](C(=O)O)[C@H](O)[C@@H](O)c1ccc(O)c(OS(=O)(=O)O)c1; Orn(4R-OH,5R-OH) = O=C([C@H](C[C@@H](O)[C@@H](O)N[*:3])N[*:1])[*:2]; Pro(3S-OH,4S-Me) = C[C@H]1CN[C@H](C(=O)O)[C@H]1O; X1 = CCCCCOc1ccc(-c2cc(-c3ccc(C(=O)*)cc3)no2)cc1; Gln(3R-OH) = NC(=O)C[C@@H](O)[C@H](N)C(=O)O; Hyp = O=C(O)[C@@H]1C[C@@H](O)CN1
# Experiments:
# [1] = tested on: Phakopspora pachyrhizi SDM Y131F I475T isolates; set-up: method as in PMID 23589453; settings: isolates from soybean plants in Brazil; cited from earlier work
# [2] = tested on: S. cerevisiae strain AD2Δ (native wild-type ScLDM); test: Broth microdilution drug susceptibility assay (MIC80), host strain AD2Δ; type: cell-based; settings: Saccharomyces cerevisiae, 48 h, pH 6.8
# Procedure: Yeast strains used in this study (Supplementary Table S1) were prepared using the AD2Δ strain of S. cerevisiae as a host, using an established protocol. AD2Δ is hypersensitive to xenobiotics due to the deletion of seven major ABC transporters, including those responsible for the efflux of azole drugs. It is also deleted of the PDR3 transcriptional regulator, but contains the gain-of-function Pdr1-3 transcriptional regulator mutation that leads to constitutive overexpression from the PDR5 locus.
# (§1) Azole susceptibility was measured as the mean drug concentration required to inhibit 80% of yeast growth (MIC80) compared to a non-drug control, using a standard broth microdilution assay. Serial dilutions of short- (FLC and VCZ), medium- (VT-1161), and long-tailed (ITC and PCZ) azole drugs, and the control drugs micafungin (MCF) and amphotericin B (AMB), were prepared in a 96-well microtiter plate in complete synthetic media lacking uracil, buffered to pH 6.8 [34]. Control and test cells were seeded at an optical density of 600 nm (OD600) of 0.005 (~1.5 × 10^4 colony forming units). After incubation for 48 h at 30 °C with constant agitation (200 rpm), the OD600 nm of each well was measured using a Synergy 2 multi-mode plate reader (BioTek Instruments, Winooski, VT, USA). The experiment was repeated three times (a total of nine measurements for the response of each strain to each drug). GraphPad Prism 5.0 software was used for statistical analysis, using a one-way analysis of variance with a Bonferroni post-hoc test. The statistical significance of comparisons was accepted when p < 0.05.
# [3] = tested on: S. cerevisiae strain AD3Δ ScErg11 (AD3Δ) overexpressing wild-type ScLDM6×His; test: Broth microdilution drug susceptibility assay (MIC80), strain AD3Δ ScErg11; type: cell-based, Saccharomyces cerevisiae; settings: for MIC80: Saccharomyces cerevisiae, 48 h, pH 6.8; for effect of ScLDM6×His overexpression on susceptibility to control antifungals: strain AD3Δ vs AD2Δ
# Procedure: (§2) The native ScERG11 gene in yeast cells containing mutant ScERG11-6×His constructs in the PDR5 locus was disrupted by homologous recombination with a cassette encoding the His1 selection marker and sequences homologous with the regions bordering the endogenous ScERG11 ORF to create strains AD3Δ ScErg11 Y140H, AD3Δ ScErg11 I471T and AD3Δ ScErg11Y140H I471T [43]. Transformants were selected on SD-His agar plates incubated at 30 °C for 48–72 h. Genomic DNA was extracted, and DNA sequencing as above was used to confirm deletion of the native ERG11. Strain AD3Δ ScErg11 (denoted as AD3Δ), which overexpresses wild-type ScLDM6×His from the PDR5 locus and has the native ScERG11 gene disrupted, was used as a control strain [43].
# as §1
# [4] = tested on: S. cerevisiae strain AD3Δ ScErg11 Y140H expressing ScLDM6×His Y140H; test: Broth microdilution drug susceptibility assay (MIC80), strain AD3Δ ScErg11 Y140H; type: cell-based, Saccharomyces cerevisiae; settings: for MIC80: Saccharomyces cerevisiae, 48 h, 30 °C, pH 6.8, mean (± SEM), n = 3
# Procedure: as §2, §1
# [5] = tested on: S. cerevisiae strain AD3Δ ScErg11 I471T expressing ScLDM6×His I471T; test: Broth microdilution drug susceptibility assay (MIC80), strain AD3Δ ScErg11 I471T; type: cell-based, Saccharomyces cerevisiae; settings: for MIC80: Saccharomyces cerevisiae, 48 h, 30 °C, pH 6.8, mean (± SEM), n = 3; for increased susceptibility compared with AD3Δ: strain AD3Δ ScErg11 I471T, not corrected for expression
# Procedure: as §2, §1
# [6] = tested on: S. cerevisiae strain AD3Δ ScErg11 Y140H I471T expressing ScLDM6×His Y140H I471T; test: Broth microdilution drug susceptibility assay (MIC80), strain AD3Δ ScErg11 Y140H I471T; type: cell-based, Saccharomyces cerevisiae
# Procedure: as §2, §1
# [7] = tested on: S. cerevisiae test and control strains (AD2Δ, AD3Δ and mutants); test: Broth microdilution MIC80, comparison across the various cell types tested; type: cell-based, Saccharomyces cerevisiae; settings: p > 0.05
# Procedure: as §1
# [8] = tested on: C. albicans Darlington strain; test: Agarose disk diffusion assay, Darlington strain; type: cell-based, Candida albicans; settings: for agarose diffusion susceptibility: no efflux pump inhibitor
# Procedure: (§3) Agarose diffusion assays were carried out as described previously using the Darlington strain of C. albicans (Pfizer Ltd., Sandwich, UK) and the control C. albicans database strain SC5314, which is not resistant to azoles. The Cdr1p-specific inhibitor RC21v3 and the CaMdr1p-specific inhibitor MCC1189 (MicroCombiChem, Wiesbaden, Germany), included in the assay medium at 6 µM, were used to investigate the contribution of efflux pumps to azole resistance in the Darlington strain [49, 50, 51].
# [9] = tested on: C. albicans strain SC5314; test: Agarose disk diffusion assay, control strain SC5314; type: cell-based, Candida albicans
# Procedure: as §3
# [10] = molecular target: wild-type and Y140F/H mutants of ScLDM6×His; set-up: method as in earlier work; settings: no significant differences, ref 5 (supplement; Sagatova et al. 2016); cited from earlier work
# [11] = strain AD2Δ, 30 °C, mean (± SEM), n = 3, read-out: MIC80
# [12] = strain AD3Δ, 30 °C, mean (± SEM), n = 3, read-out: MIC80
# [13] = Saccharomyces cerevisiae, strain Y140H + I471T, 48 h, 30 °C, pH 6.8, mean (± SEM), n = 3
# [14] = strain Y140H, relative expression 0.74
# [15] = strain I471T, relative expression 0.51
# [16] = strain Y140H+I471T, relative expression 0.41
compound,measurement,setting,value
Fc1ccc([C@]2(Cn3cncn3)O[C@H]2c2ccccc2Cl)cc1 (racemic) [epoxiconazole],resistance conferred by the double mutation Y131F I475T,[1],~ 100 fold
"C[C@@H]1[C@H](O)[C@@H](C)/C=C/C=C/C=C/C=C/C=C/C=C/C=C/[C@H](O[C@@H]2O[C@H](C)[C@@H](O)[C@H](N)[C@@H]2O)C[C@@H]2O[C@](O)(C[C@@H](O)C[C@@H](O)[C@H](O)CC[C@@H](O)C[C@@H](O)CC(=O)O[C@H]1C)C[C@H](O)[C@H]2C(=O)O [AMB, amphotericin B]",MIC80,[2]; [11],2.18 µM
same,MIC80,[3]; [12],2.34 µM
same,effect of ScLDM6×His overexpression on susceptibility to control antifungals,[3],did not modify susceptibility
same,MIC80,[4]; strain Y140H,2.19 µM
same,MIC80,[5]; strain I471T,2.26 µM
same,increased susceptibility compared with AD3Δ,[5],not
same,MIC80,[6]; [13],2.14 µM
same,differences between MIC80s for the various cell types tested,[7],no statistically significant differences
same,agarose diffusion susceptibility,[8],mild resistance
"OC(Cn1cncn1)(Cn1cncn1)c1ccc(F)cc1F [FLC, fluconazole]",MIC80,[2],1.33 µM
same,MIC80/Relative Amount of ScLDM6×His,[3],3.64 µM
same,MIC80,[3],3.64 µM
same,MIC80,[4]; strain Y140H,7.4 µM
same,"resistance conferred, relative amount of recombinant ScLDM6×His taken into account",[4]; ScLDM6×His Y140H vs AD3Δ,2.8 fold
same,MIC80 higher than strain AD3Δ ScErg11,"[4]; strain AD3Δ ScErg11 Y140H vs AD3Δ, not corrected for expression, p < 0.001",~ 2 fold
same,MIC80/Relative Amount of ScLDM6×His,[4]; [14],10 µM
same,fold-resistance based on the relative amount of recombinant enzyme compared with strain AD3Δ,[4]; [14],2.8 ×
same,MIC80,[5]; strain I471T,1.88 µM
same,increased susceptibility compared with AD3Δ,[5],1.9 fold
same,MIC80/Relative Amount of ScLDM6×His,[5]; [15],3.69 µM
same,fold-resistance based on the relative amount of recombinant enzyme compared with strain AD3Δ,[5]; [15],1.0 ×
same,MIC80,[6]; [13],11.5 µM
same,MIC80 higher than AD3Δ ScErg11 cells,"[6]; strain AD3Δ ScErg11 Y140H I471T, not corrected for expression, p < 0.001",approximately 3 fold
same,MIC80 higher than cells overexpressing ScLDM6×His Y140H,"[6]; strain AD3Δ ScErg11 Y140H I471T, p < 0.001",1.5 fold
same,MIC80/Relative Amount of ScLDM6×His,[6]; [16],28.0 µM
same,fold-resistance based on the relative amount of recombinant enzyme compared with strain AD3Δ,[6]; [16],7.7 ×
same,effect of Cdr1p inhibitor RC21v3 on azole susceptibility,[9],did not alter the susceptibility
same,effect of Mdr1 inhibitor MCC1189 on azole susceptibility,[9],did not alter the susceptibility
same,agarose diffusion susceptibility,"[9]; SC5314, no efflux pump inhibitor",susceptible
same,effect of Mdr1 inhibitor MCC1189 on azole susceptibility,[8]; MCC1189 at 6 µM in the assay medium,did not alter the susceptibility
same,effect of Cdr1p inhibitor RC21v3 on azole susceptibility,[8]; RC21v3 at 6 µM in the assay medium,did not alter the susceptibility
same,agarose diffusion susceptibility,[8],resistant
same,Kd,[10],~500 nM
"CCCCCOc1ccc(-c2cc(-c3ccc(C(=O)N[C@H]4C[C@@H](O)[C@@H](O)NC(=O)[C@@H]5[C@@H](O)[C@@H](C)CN5C(=O)[C@H]([C@H](O)CC(N)=O)NC(=O)[C@H]([C@H](O)[C@@H](O)c5ccc(O)c(OS(=O)(=O)O)c5)NC(=O)[C@@H]5C[C@@H](O)CN5C(=O)[C@H]([C@@H](C)O)NC4=O)cc3)no2)cc1 [MCF, micafungin] (X1-[Orn(4R-OH,5R-OH)]T[Hyp][hTyr(3S-OH,4S-OH,3'-OSO3H)][Gln(3R-OH)][Pro(3S-OH,4S-Me)]; lactam 1-C)",MIC80,[2]; [11],0.174 µM
same,MIC80,[3]; [12],0.146 µM
same,effect of ScLDM6×His overexpression on susceptibility to control antifungals,[3],did not modify susceptibility
same,MIC80,[4]; strain Y140H,0.166 µM
same,MIC80,[5]; strain I471T,0.164 µM
same,increased susceptibility compared with AD3Δ,[5],not
same,MIC,[6]; [13],0.162 µM
same,differences between MIC80s for the various cell types tested,[7],no statistically significant differences

# Reference: publication PMC8621857, “Structural Insights into the Azole Resistance of the Candida albicans Darlington Strain Using Saccharomyces cerevisiae Lanosterol 14α-Demethylase as a Surrogate” (Journal of Fungi, 2021)
